{
  "source": "paper PMC12480666",
  "about": "“A robust platform streamlining aromatic noncanonical amino acid biosynthesis and genetic code expansion in Escherichia coli” (Nature Communications, 2025)",
  "biological_target": "T1, TyrB (aromatic amino acid aminotransferase) (Escherichia coli, UniProt P04693)",
  "T1 construct": "recombinant, purified from E. coli",
  "T1 sequence (P04693 1-397)": "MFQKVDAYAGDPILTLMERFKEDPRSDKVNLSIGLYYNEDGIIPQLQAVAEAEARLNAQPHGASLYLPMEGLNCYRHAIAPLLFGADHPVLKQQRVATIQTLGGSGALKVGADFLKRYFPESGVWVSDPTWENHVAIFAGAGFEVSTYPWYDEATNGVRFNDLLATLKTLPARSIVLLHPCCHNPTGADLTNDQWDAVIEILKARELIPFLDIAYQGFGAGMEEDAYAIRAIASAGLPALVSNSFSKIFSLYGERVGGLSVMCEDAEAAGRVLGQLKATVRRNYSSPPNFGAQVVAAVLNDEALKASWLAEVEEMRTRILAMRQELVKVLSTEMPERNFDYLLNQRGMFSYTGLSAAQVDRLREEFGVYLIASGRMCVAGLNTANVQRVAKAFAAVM",
  "assay": "in vitro cascade of purified PpLTA, RpTD and TyrB",
  "format": "biochemical",
  "conditions": "final transamination step",
  "data": [
    {"compound": "N[C@@H](Cc1ccc(I)cc1)C(=O)O", "note": "[compound 19, p-iodophenylalanine]", "values": [
      {"measurement": "in vitro cascade of purified PpLTA, RpTD and TyrB", "setting": "from 1 mM para-iodobenzaldehyde", "result": "the enzyme cascade efficiently converted the substrates into their corresponding amino acids"}
    ]},
    {"compound": "Cc1ccc(C[C@H](N)C(=O)O)cc1", "note": "[p-methylphenylalanine]", "values": [
      {"measurement": "in vitro cascade of purified PpLTA, RpTD and TyrB", "setting": "from 1 mM para-methylbenzaldehyde", "result": "the enzyme cascade efficiently converted the substrates into their corresponding amino acids"}
    ]}
  ]
}
